Source: US20090181975A1, “NEBIVOLOL IN THE TREATMENT OF SEXUAL DYSFUNCTION” (FOREST LABORATORIES HOLDINGS LIMITED, priority 2008, published 2009)

Columns and labels:
cGMP in rat plasma [1] = assay: Plasma cGMP content by ELISA; type: in vivo, rat (Sprague-Dawley)
Protocol: To determine the plasma cGMP content, Sprague-Dawley rats were anesthetized with urethane (1.25 g/kg). The right carotid artery was catheterized for constant blood pressure and heart rate measurement by means of a pressure transducer connected to a PowerLab data acquisition system (ADInstruments). The left external jugular vein was catheterized for saline or drug infusion. After administering the respective treatments, rat plasma samples were collected, immediately frozen and stored at −80° C. until extraction for cyclic nucleotide assay. cGMP was determined by ELISA using a kit from Cayman Chemical Co. Plasmatic cGMP levels were determined 10 minutes after nebivolol administration.

[2] = system: human penile resistance arteries (HPRA); assay: Relaxation of human penile resistance arteries contracted with U46619 (myograph); type: cell-based; parameters: effect on endothelium-dependent relaxation of HPRA caused by acetylcholine / effect on sildenafil-mediated relaxation of HPRA: unit of the concentration uncertain; conditions: for effect on endothelium-dependent relaxation of HPRA caused by acetylcholine: metoprolol (1 (unit uncertain)), nebivolol (0.3 (unit uncertain))
Protocol: Specimens of human corpus cavernosum were obtained from organ donors and from impotent men at the time of penile prosthesis implantation. Tissues were placed in ice-cold M-400 solution (pH 7.4; 400 mOsm/kg, composition in w/v: 4.19% manitol, 0.2% KH2PO4, 0.97% K2HPO4.3H2O, 0.11% KCl and 0.08% NaHCO3) at the time of removal and transported to the laboratory for utilization within 16 h.
To determine the resistance of penile small arteries, helicine arteries (lumen diameter 150-400 μm) which are the terminal branches of deep penile arteries, were dissected by carefully removing the adhering trabecular tissue, and arterial ring segments (2 mm long) were subsequently mounted on two 40 μm wires on microvascular double Halpern-Mulvany myographs (J.P. Trading, Aarhus, Denmark) for isometric tension recordings. The chambers were filled with PSS continuously bubbled with 95% O2/5% CO2 mixture to maintain a pH of 7.4. […]

diabetic rats = assay: Glycemia, arterial pressure and heart rate in STZ-diabetic rats after 10 days s.c. treatment; type: in vivo, rat (Sprague-Dawley); conditions: 3 or 10 mg/kg/day s.c. for 10 days
Protocol: Male Sprague-Dawley rats were used as a model for this study. Diabetes was induced by a single injection of streptozotocin (STZ, 60 mg/kg; i.p.) dissolved in 0.1 M citric acid/trisodic citrate buffer (pH 4-4.5) and was assessed by glycemia determination 72 h after induction. Animals were kept, with free access to food and water, for 8 weeks before experimental assays. Eight weeks after induction of diabetes, rats show reduced erectile responses (Angulo et al., Naunyn-Schmiedeberg's Arch Pharmacol, 358(5), 529-37, 1998; Angulo et al., J. Sex Med., 2, 341-346, 2005). Blood glucose concentration was determined each week and just before the experiment. Insulin levels were not determined. […] After this period of treatment, the diabetic rats were anesthetized and ICP responses to electrical stimulation were evaluated. After an equilibration period, the PDE5 inhibitor sildenafil (0.3 mg/kg) or the vehicle (25% glycofurol) was intravenously administered. Forty five minutes later, ICP responses were again determined

cGMP in rat plasma [3] = assay: Plasma cGMP in STZ-diabetic rats; type: in vivo, rat (Sprague-Dawley)
Protocol: Male Sprague-Dawley rats were used as a model for this study. Diabetes was induced by a single injection of streptozotocin (STZ, 60 mg/kg; i.p.) dissolved in 0.1 M citric acid/trisodic citrate buffer (pH 4-4.5) and was assessed by glycemia determination 72 h after induction. Animals were kept, with free access to food and water, for 8 weeks before experimental assays. Eight weeks after induction of diabetes, rats show altered in vivo vascular function (Angulo et al., Naunyn-Schmiedeberg's Arch Pharmacol, 358(5), 529-37, 1998) and reduced erectile responses (Angulo et al., J. Sex Med., 2, 341-346, 2005). Blood glucose concentration was determined each week and just before the experiment. Insulin levels were not determined. Plasma samples were collected, immediately frozen and stored at −80° C. until extraction for cyclic nucleotide assay. Samples were then precipitated in ethanol, centrifuged and the supernatant was dried under a nitrogen stream. Penile tissues were rapidly immersed in liquid nitrogen and were stored at −80° C. until extraction for cyclic nucleotide assay. […] After 10 days treatment, diabetic rats were anesthetized and erectile responses to cavernosal nerve electrical stimulation (CNES) were determined. After an equilibration period, the PDE-5 inhibitor sildenafil (0.3 mg/kg) or the vehicle (25% glycofurol) was intravenously administered. Forty five minutes later, erectile responses to CNES were again evaluated, and 5 min after CNES application, blood was collected for obtaining plasma and serum, and the penis was excised. Serum samples were immediately frozen until determinations of NOx and TBARS. Plasma and penile tissues were immediately frozen until determinations of cGMP.

[4] = system: thiobarbituric acid reactive substances (TBARS) in rat serum; assay: Serum TBARS in STZ-diabetic rats; type: in vivo, rat (Sprague-Dawley); conditions: for effect on TBARS levels in diabetic rats: groups with and without sildenafil pooled
Protocol: Male Sprague-Dawley rats were used as a model for this study. Diabetes was induced by a single injection of streptozotocin (STZ, 60 mg/kg; i.p.) dissolved in 0.1 M citric acid/trisodic citrate buffer (pH 4-4.5) and was assessed by glycemia determination 72 h after induction. Animals were kept, with free access to food and water, for 8 weeks before experimental assays. Eight weeks after induction of diabetes, rats show altered in vivo vascular function (Angulo et al., Naunyn-Schmiedeberg's Arch Pharmacol, 358(5), 529-37, 1998) and reduced erectile responses (Angulo et al., J. Sex Med., 2, 341-346, 2005). Blood glucose concentration was determined each week and just before the experiment. Insulin levels were not determined. Blood was collected from the right ventricle, clotted in gel and centrifuged at 1500×g to obtain serum. Thiobarbituric acid reactive substances (TBARS) were determined by reacting thiobarbituric acid with serum samples at 70° C. for 30 min and reading absorbance at 532 nm. Serum concentrations of TBARS were determined by using malondialdehyde (MDA) as a standard. […] Results were expressed as ng/ml of MDA equivalents. […] After 10 days treatment, diabetic rats were anesthetized and erectile responses to cavernosal nerve electrical stimulation (CNES) were determined. After an equilibration period, the PDE-5 inhibitor sildenafil (0.3 mg/kg) or the vehicle (25% glycofurol) was intravenously administered. Forty five minutes later, erectile responses to CNES were again evaluated, and 5 min after CNES application, blood was collected for obtaining plasma and serum, and the penis was excised. Serum samples were immediately frozen until determinations of NOx and TBARS. Plasma and penile tissues were immediately frozen until determinations of cGMP.

SMILES | increase in plasma cGMP levels (cGMP in rat plasma [1]; 3 mg/kg i.v., 10 minutes after administration, percentage of cGMP concentration before administration (FIG. 15)) [%] | interaction with sildenafil on plasma cGMP levels (cGMP in rat plasma [1]; combination of sildenafil and nebivolol) | plasma cGMP levels after combined administration with sildenafil (cGMP in rat plasma [1]; nebivolol 3 mg/kg + sildenafil 0.3 mg/kg i.v.) | plasma cGMP levels after combining sildenafil with nebivolol, dose-dependent (cGMP in rat plasma [1]; nebivolol 1 and 3 mg/kg + sildenafil 0.3 mg/kg i.v.) | EC50 ([2]; Homo sapiens, nebivolol 1 nM to 10 μM, read-out: EC50, endothelium-dependent vasodilation of HPRA) [nM] | Emax ([2]; Homo sapiens, nebivolol 1 nM to 10 μM, read-out: Emax, endothelium-dependent vasodilation of HPRA) [%] | relaxation of HPRA compared with metoprolol or atenolol ([2]; U46619 30-100 nM) | relaxation of HPRA by cumulative addition ([2]; U46619 30-100 nM, 1 nM to 0.1 mM) | effect on endothelium-dependent relaxation of HPRA caused by acetylcholine ([2]; atenolol (1 (unit uncertain))) | effect on sildenafil-mediated relaxation of HPRA ([2]; nebivolol (1 (unit uncertain)), atenolol (1 (unit uncertain))) | effect on arterial pressure in diabetic rats (diabetic rats) | effect on heart rate in diabetic rats (diabetic rats) | effect on plasma cGMP content in diabetic rats (cGMP in rat plasma [3]; 3 and 10 mg/kg/day for 10 days) | influence on the effects of sildenafil on plasma cGMP content in diabetic rats (cGMP in rat plasma [3]; 3 and 10 mg/kg/day for 10 days, sildenafil 0.3 mg/kg i.v.) | effect on TBARS levels in diabetic rats ([4]; 10 mg/kg/day for 10 days) | effect on TBARS levels in diabetic rats ([4]; administered for 10 days) | effect on plasma cGMP levels (cGMP in rat plasma [1]; i.v.: atenolol 3 mg/kg, sildenafil 0.3 mg/kg, sodium nitroprusside 0.1 mg/kg) | effect on plasma cGMP levels in diabetic and non diabetic rats (cGMP in rat plasma [3]; sildenafil 0.3 mg/kg i.v.) | influence on serum TBARS levels ([4]; sildenafil 0.3 mg/kg i.v.)
OC(CNCC(O)C1CCc2cc(F)ccc2O1)C1CCc2cc(F)ccc2O1 (racemic) [nebivolol, α,α′-iminobis(methylene)bis[6-fluoro-2-chromanmethanol]] | 177±38 | synergistically increases plasma cGMP levels | marked increase of cGMP levels | significant further increase | 24.4 | 59.1 ± 10.3 | significantly more potent than those caused by metoprolol or atenolol | marked relaxations | not affected | able to enhance | Neither diabetes nor either drug treatment (nebivolol or atenolol) significantly affected | further reduced | did not result in significant modifications | did not influence | significant reduction | trend to reduce |  |  | 
CC(C)NCC(O)COc1ccc(CC(N)=O)cc1 (stereo not shown) [atenolol] |  |  |  |  |  |  |  |  | not affected |  | Neither diabetes nor either drug treatment (nebivolol or atenolol) significantly affected | further reduced |  |  |  |  |  |  | 
CCCc1nn(C)c2c(=O)[nH]c(-c3cc(S(=O)(=O)N4CCN(C)CC4)ccc3OCC)nc12 [sildenafil] |  |  |  |  |  |  |  |  |  |  |  |  |  |  |  |  | augmented cGMP up to similar levels than nebivolol | marked increase | did not significantly influence
